Test results taken from patent US10172957B2, “Acid-labile lipophilic prodrugs of cancer chemotherapeutic agents” (priority 2011, dated 2019).

Legend:
[1] = Stability in mouse plasma at 37° C.; format: in vitro ADME
Method: The stability of the acid labile, lipophilic molecular conjugates to hydrolysis in plasma was evaluated to determine their potential to release the active cancer chemotherapeutic agents into systemic circulation and thereby cause general off target toxicity (“side effects”). The conjugates were incubated with plasma of mouse, rat and human origin.
HPLC grade Methanol from Fisher (Fair lawn, NJ, USA). Part No: A452-4 (074833). HPLC grade Water from Fisher (Fair lawn, NJ, USA). Part No: W5-4 (073352). Drug-free mouse, rat and human plasmas were purchased from Innovative Research Inc. (Southfield, Mich., USA). LIPOSYN® I.V. (30% soybean oil and egg yolk phospholipids, Abbott Laboratories) Fat Emulsion from Hospira, Inc. (Lake Forest, Ill.).
Each drug (ART 198, ART 273, ART 488 and ART 489) was prepared in triplicate in mouse, rat and human plasma individually at […] concentration and vortexed for 1 minute and placed in a water bath at 37° C. at a shake rate of 75 per minute. Samples were drawn at time points of 0, 15, 30, 45, 60, 75, 90, 105, 120, 135, 150, 165, 180, 210, 240, 300, 360 and 480 minutes.
Chromatographic separation of the compounds was performed on a Waters Acquity UPLC™ using a BEH C18 column (1.7 μm, 2.1×50 mm). The mobile phase consisted of Methanol: 0.1% Formic acid (80:20). The flow rate was 0.3 ml/min; the sample injection volume was 5 μL, resulting in a 3 minute run time.
The MS instrumentation consisted of a Waters Micromass Quattro Micro™ triple-quadrupole system (Manchester, UK). The MS system was controlled by a 4.0 version of MassLynx software. Ionization was performed in the positive electrospray ionization mode. MS/MS conditions were the following: capillary voltage 3.02 kV; cone voltage 50 v; extractor voltage 5 v; and RF lens voltage 0.5 v. The source and desolvation temperatures were 100° C. and 400° C. respectively, and the desolvation and cone gas flow were 400 and 30 L/hr, respectively.
The selected mass-to-charge (m/z) ratio transitions of the ART 198 used in the selected ion monitoring (SIM) were: for ART 198, 617 (M+K)^+, for ART 273, 589 (M+K)^+, for ART 488, 913 (M+Na)^+, and for ART 489, 957 (M+Na)^+. The dwell time was set at 200 msec. MS conditions were optimized using direct infusion of standard solutions prepared in methanol and delivered by a syringe pump at a flow rate of 20 μL/min.
Samples of 100 μL were collected at time points of 0, 15, 30, 45, 60, 75, 90, 105, 120, 135, 150, 165, 180, 210, 240, 300, 360 and 480 minutes respectively and the reaction was terminated with methanol. In a separate set of experiments the acid labile, lipophilic molecular conjugates were dissolved in a small amount of ethanol and diluted into a lipid emulsion (Liposyn®) and added to mouse and human plasma before incubation and the hydrolysis of the conjugates was similarly measured. Collected plasma samples of 100 μL containing drug were placed in separate Eppendorf micro centrifuge tubes for processing. Methanol (200 μL) was added to extract the drug using the protein precipitation technique. The micro tubes were then vortex mixed for 10 minutes and centrifuged for 15 minutes at a speed of 10,000 rpm (Eppendorf 5415C centrifuge). The supernatant was collected and filtered using a 0.45 μm filter (Waters 13 mm GHP 0.45 μm) before analysis.
The weighted linear least-squares (1/x) regression was used as the mathematical model. The coefficient (r) for the compounds ranged from 0.9925 to 0.9999. The calibration range was selected according to the concentrations anticipated in the samples to be determined.
Samples were collected at various times and the percent remaining of the acid labile, lipophilic molecular conjugate of the cancer chemotherapeutic agent was determined along with the percent of the chemotherapeutic agent released from the hydrolysis of the conjugate.

CEM/VLB100 cells (MDR+) = experiment: cells; format: cell-based, human; conditions: for IC50: Homo sapiens, CEM/VLB100, read-out: IC50 CEM/VLB100 (MDR + HTL), CEM/VLB100, MTT; for Degree of resistance (CEM/VLB100): IC50 of the resistant line divided by IC50 of sensitive CEM cells
Excerpt: A second evaluation of the cytotoxicity of the acid labile, lipophilic molecular conjugates was undertaken.
These lines included a uterine sarcoma line, MES-SA, and its doxorubicin-resistant subline, MES-SA/Dx5. See W. G. Harker, F. R MacKintosh, and B. I. Sikic. Development and characterization of a human sarcoma cell line, MES-SA, sensitive to multiple drugs. Cancer Research 43: 4943-4950 (1983); W. G. Harker and B. I. Sikic. Multidrug (pleiotropic) resistance in doxorubicin-selected variants of the human sarcoma cell line MES-SA. Cancer Research 45: 4091 4096 (1985).
The second set of cells tested, CCRF-CEM or simply CEM, were derived from the blood of a patient with acute lymphoblastic leukemia. G. E. Foley, H. Lazarus, S. Farber, B. G. Uzman, B. A. Boone, and R E. McCarthy. Continuous culture of human lymphoblasts from peripheral blood of a child with acute leukemia. Cancer 18: 522-529 (1965). The subline CEM/VLB100 was developed to be resistant to up to vinblastine at 100 ng/ml. W. T. Beck, T. J. Mueller, and L. R. Tanzer. Altered surface membrane glycoproteins in Vinca alkaloid-resistant human leukemic lymphoblasts. Cancer Research 39: 2070-2076 (1979). Drug resistance is achieved by overexpression of the MDR1 gene. Resistance in the CEM subline designated CEM/VM-1-5, however, is “atypical.” M. K. Danks, J. C. Yalowich, and W. T. Beck. Atypical multiple drug resistance in a human leukemic cell line selected for resistance to teniposide (VM-26). Cancer Research 47: 1297-1301 (1987). The classes of drugs included in the “classic” multiple drug resistance phenotype are Vinca alkaloids, anthracyclines, epipodophyllotoxins and antibiotics. However, CEM/VM-1-5 cells retain sensitivity to the Vinca alkaloids despite resistance and cross-resistance to etoposide, anthracyclines and mitoxantrone. Danks, M. K.; Schmidt, C. A.; Cirtain, M. C.; Suttle, D. P.; Beck, W. T., Altered catalytic activity of and DNA cleavage by DNA topoisomerase II from human leukemic cells selected for resistance to VM-26. Biochemistry 1988, 27, 8861-8869. Resistance in CEM/VM-1-5 cells is effected by over expression of the […]. CEM, CEM/VLB100 and CEM/VM-1-5 cells were obtained from Dr. WT Beck, University of Illinois at Chicago.

| SMILES | percent remaining of initial drug ([1]; 0 min) | percent remaining of initial drug ([1]; 15 min) | percent remaining of initial drug ([1]; 30 min) | percent remaining of initial drug ([1]; 45 min) | percent remaining of initial drug ([1]; 60 min) | percent remaining of initial drug ([1]; 75 min) | percent remaining of initial drug ([1]; 90 min) | percent remaining of initial drug ([1]; 105 min) | percent remaining of initial drug ([1]; 120 min) | percent remaining of initial drug ([1]; 135 min) | percent remaining of initial drug ([1]; 150 min) | percent remaining of initial drug ([1]; 165 min) | percent remaining of initial drug ([1]; 180 min) | percent remaining of initial drug ([1]; 210 min) | percent remaining of initial drug ([1]; 240 min) | percent remaining of initial drug ([1]; 300 min) | percent remaining of initial drug ([1]; 360 min) | IC50 (CEM/VLB100 cells (MDR+)) | Degree of resistance (CEM/VLB100) (CEM/VLB100 cells (MDR+)) |
| --- | --- | --- | --- | --- | --- | --- | --- | --- | --- | --- | --- | --- | --- | --- | --- | --- | --- | --- | --- |
| CCCCCCCCCCCCCCCC1OCC(COC(=O)OC2=C(C)[C@@H]3C[C@H]4OC(=O)C(OC(=O)CC5(O)CCCCC5)[C@H]5[C@]6(C(=O)OC)OC[C@]45[C@H]([C@@H](O)[C@@H]6O)[C@@]3(C)CC2=O)O1 (stereo partly drawn) [ART 489] | 100% | 95.7% | 88.6% | 84.8% | 79.2% | 78.1% | 70.1% | 68.0% | 64.1% | 63.2% | 59.4% | 54.7% | 51.6% | 50.3% | 47.5% | 41.1% | 38.1% | 0.67 ± 0.071 µM | 33 ± 0 |
| COC(=O)[C@@]12OC[C@]34[C@H]([C@@H](O)[C@@H]1O)[C@@]1(C)CC(=O)C(O)=C(C)[C@@H]1C[C@H]3OC(=O)C(OC(=O)CC1(O)CCCCC1)[C@@H]24 (stereo partly drawn) [ART 198] | 100% | 96.8% | 94.0% | 85.5% | 82.0% | 72.6% | 66.9% | 63.2% | 59.2% | 57.4% | 51.9% | 46.2% | 43.0% | 39.3% | 35.4% | 32.4% | 28.8% | 7.19 ± 1.92 µM | 76 ± 52 |
| CCCCCCCCCCCCCCCC1OCC(COC(=O)O[C@@H]2C(=O)C=C(C)[C@@H]3C[C@H]4OC(=O)C(OC(=O)CC(O)(C(C)C)C(C)C)C5[C@@H](C)[C@@H](O)[C@@]6(O)OC[C@@]54C6[C@@]23C)O1 (stereo partly drawn) [ART 488] | 100% | 91.2% | 85.7% | 81.3% | 75.0% | 73.2% | 65.2% | 58.8% | 56.4% | 56.2% | 55.0% | 53.7% | 53.7% | 52.4% | 50.3% | 48.2% | 45.6% | 0.034 ± 0.012 µM | 9 ± 4 |
